According to patent US11572369B2, “Bicyclic pyridine compositions and methods of using the same for cancer therapy” (UNIVERSITY OF SOUTH CAROLINA, priority 2019, dated 2023):

What was measured:
Test in all cases: KINOMEscan
Assay type in all cases: binding
Settings in all cases: 2000 nM
FLT3 = target: T1, FLT3 (Homo sapiens, UniProt P36888)
T1 construct: purchased DiscoveRx (KINOMEscan scanMAX panel)

PIK3CA(I800L) = target: T2, PIK3CA(I800L) (Homo sapiens, UniProt P42336, I800L)
T2 construct: DNA label; purchased DiscoveRx (KINOMEscan scanMAX panel)

TNIK = target: T3, TNIK (Homo sapiens, UniProt Q9UKE5)
T3 construct: DNA label (qPCR read-out); purchased KINOMEscan (DiscoveRx) ScanMAX panel

VPS34 = target: T4, VPS34 (Homo sapiens, UniProt Q8NEB9)
T4 construct: DNA label (for qPCR read-out); purchased DiscoveRx (KINOMEscan scanMAX panel)

DMPK = target: T5, DMPK (Homo sapiens, UniProt Q09013)
T5 construct: DNA label (qPCR read-out); purchased KINOMEscan (DiscoveRx) panel

BRSK1 = target: T6, BRSK1 (Homo sapiens, UniProt Q8TDC3)
T6 construct: DNA label (for qPCR read-out); purchased KINOMEscan scanMAX panel (DiscoveRx)

TNK2 = target: T7, TNK2 (Homo sapiens, UniProt Q07912)
T7 construct: DNA label (qPCR read-out); purchased KINOMEscan (DiscoveRx) ScanMAX panel

DYRK2 = target: T8, DYRK2 (Homo sapiens, UniProt Q92630)
T8 construct: DNA label (qPCR read-out); purchased KINOMEscan (DiscoveRx) panel

FLT3(R834Q) = target: T9, FLT3(R834Q) (Homo sapiens, UniProt P36888, R834Q)
T9 construct: purchased KINOMEscan (DiscoveRx)

TESK1 = target: T10, TESK1 (Homo sapiens, UniProt Q15569)
T10 construct: DNA label (for qPCR read-out); purchased DiscoveRx (KINOMEscan scanMAX panel, contract assay)

MRCKA = target: T11, MRCKA (Homo sapiens, UniProt Q5VT25)
T11 construct: DNA label (qPCR read-out); purchased KINOMEscan scanMAX panel (DiscoveRx)

PRKX = target: T12, PRKX (Homo sapiens, UniProt P51817)
T12 construct: purchased DiscoveRx (KINOMEscan scanMAX panel)

KIT(L576P) = target: T13, KIT(L576P) (Homo sapiens, UniProt P10721, L576P)
T13 construct: DNA label (for qPCR read-out); purchased DiscoveRx (KINOMEscan scanMAX panel)

[1] = target: T14, RSK3(Kin.Dom.2-C-terminal) (Homo sapiens, UniProt Q15349)
T14 construct: RSK3(Kin.Dom.2); purchased DiscoveRx (KINOMEscan scanMAX panel)

NDR1 = target: T15, NDR1 (Homo sapiens, UniProt Q15208)
T15 construct: DNA label (for qPCR read-out); purchased KINOMEscan scanMAX panel (DiscoveRx)

CDK4-cyclinD1 = target: T16, CDK4-cyclinD1 (Homo sapiens, UniProt P11802)
T16 construct: purchased DiscoverX (KINOMEscan service)

PLK2 = target: T17, PLK2 (Homo sapiens, UniProt Q9NYY3)
T17 construct: purchased DiscoveRx (KINOMEscan scanMAX panel)

p38-alpha = target: T18, p38-alpha (Homo sapiens, UniProt Q16539)
T18 construct: purchased DiscoverX (KINOMEscan service)

MAP3K4 = MAP3K4 (Homo sapiens, UniProt Q9Y6R4)
PDGFRB = target: T19, PDGFRB (Homo sapiens, UniProt P09619)
T19 construct: DNA label (for qPCR read-out); purchased DiscoveRx (KINOMEscan scanMAX service)

AURKB = target: T20, AURKB (Homo sapiens, UniProt Q96GD4)
T20 construct: DNA label (qPCR read-out); purchased KINOMEscan scanMAX panel (DiscoveRx)

GCN2(Kin.Dom.2, S808G) = target: T21, GCN2(Kin.Dom.2, S808G) (Homo sapiens, UniProt Q9P2K8, S808G)
T21 construct: GCN2(Kin.Dom.2, S808G); purchased KINOMEscan (DiscoveRx)

PIK3CB = target: T22, PIK3CB (Homo sapiens, UniProt P42338)
T22 construct: DNA label; purchased DiscoveRx (KINOMEscan scanMAX panel)

SRC = target: T23, SRC (Homo sapiens, UniProt P12931)
T23 construct: purchased KINOMEscan (DiscoveRx)

[2] = target: T24, RSK2(Kin.Dom.2-C-terminal) (Homo sapiens, UniProt P51812)
T24 construct: RSK2(Kin.Dom.2); purchased DiscoveRx (KINOMEscan scanMAX panel)

FLT3-autoinhibited = target: T25, FLT3-autoinhibited (Homo sapiens, UniProt P36888)
T25 construct: purchased KINOMEscan (DiscoveRx)

CSF1R-autoinhibited = target: T26, CSF1R-autoinhibited (Homo sapiens, UniProt P07333)
T26 construct: DNA label (for qPCR read-out); purchased DiscoveRx (KINOMEscan scanMAX service)

[3] = target: T27, RSK4(Kin.Dom.1-N-terminal) (Homo sapiens, UniProt Q9UK32)
T27 construct: RSK4(Kin.Dom.1); purchased DiscoveRx (KINOMEscan scanMAX panel)

CDK4 = target: T28, CDK4 (Homo sapiens, UniProt P11802)
T28 construct: purchased DiscoverX (KINOMEscan service)

EGFR(G719C) = target: T29, EGFR(G719C) (Homo sapiens, UniProt P00533, G719C)
T29 construct: purchased DiscoveRx (KINOMEscan scanMAX panel)

SBK1 = target: T30, SBK1 (Homo sapiens, UniProt Q52WX2)
T30 construct: purchased DiscoveRx (KINOMEscan scanMAX panel)

WNK1 = target: T31, WNK1 (Homo sapiens, UniProt Q9H4A3)
T31 construct: purchased KINOMEscan (DiscoveRx) panel service

[4] = target: ABL1(T315I)-nonphosphorylated (Homo sapiens, UniProt P00519, T315I)
AURKC = target: T32, AURKC (Homo sapiens, UniProt Q9UQB9)
T32 construct: DNA label (qPCR read-out); purchased KINOMEscan scanMAX panel (DiscoveRx)

T23 sequence (P12931 whole entry): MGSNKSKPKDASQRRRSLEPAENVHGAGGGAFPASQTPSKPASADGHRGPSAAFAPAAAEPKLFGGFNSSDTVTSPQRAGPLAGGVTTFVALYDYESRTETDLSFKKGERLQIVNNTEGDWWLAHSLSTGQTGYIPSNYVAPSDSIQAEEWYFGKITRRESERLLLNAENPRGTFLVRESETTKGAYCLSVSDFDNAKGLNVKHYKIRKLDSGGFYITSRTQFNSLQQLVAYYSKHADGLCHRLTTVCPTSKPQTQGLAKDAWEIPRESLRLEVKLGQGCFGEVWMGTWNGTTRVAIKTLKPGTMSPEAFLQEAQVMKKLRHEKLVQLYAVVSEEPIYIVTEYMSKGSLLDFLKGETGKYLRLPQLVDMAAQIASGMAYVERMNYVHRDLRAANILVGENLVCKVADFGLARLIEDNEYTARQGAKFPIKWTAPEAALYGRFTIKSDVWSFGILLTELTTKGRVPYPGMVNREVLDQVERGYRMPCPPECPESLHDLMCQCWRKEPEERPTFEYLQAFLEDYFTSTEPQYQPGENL
T21 sequence (Q9P2K8 590-1001 S808G limits assumed): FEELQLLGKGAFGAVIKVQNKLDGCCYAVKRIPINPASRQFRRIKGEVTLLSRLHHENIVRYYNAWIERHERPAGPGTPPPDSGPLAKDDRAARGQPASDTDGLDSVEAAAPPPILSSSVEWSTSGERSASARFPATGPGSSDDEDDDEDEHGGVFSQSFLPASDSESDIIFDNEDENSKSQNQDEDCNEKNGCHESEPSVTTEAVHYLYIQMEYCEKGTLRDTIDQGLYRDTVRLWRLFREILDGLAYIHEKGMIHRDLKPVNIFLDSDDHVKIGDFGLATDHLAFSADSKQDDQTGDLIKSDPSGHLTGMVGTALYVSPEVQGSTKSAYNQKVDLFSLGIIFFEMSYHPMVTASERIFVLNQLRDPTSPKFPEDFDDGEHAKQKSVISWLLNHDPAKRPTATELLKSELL
T19 sequence (P09619 33-1106): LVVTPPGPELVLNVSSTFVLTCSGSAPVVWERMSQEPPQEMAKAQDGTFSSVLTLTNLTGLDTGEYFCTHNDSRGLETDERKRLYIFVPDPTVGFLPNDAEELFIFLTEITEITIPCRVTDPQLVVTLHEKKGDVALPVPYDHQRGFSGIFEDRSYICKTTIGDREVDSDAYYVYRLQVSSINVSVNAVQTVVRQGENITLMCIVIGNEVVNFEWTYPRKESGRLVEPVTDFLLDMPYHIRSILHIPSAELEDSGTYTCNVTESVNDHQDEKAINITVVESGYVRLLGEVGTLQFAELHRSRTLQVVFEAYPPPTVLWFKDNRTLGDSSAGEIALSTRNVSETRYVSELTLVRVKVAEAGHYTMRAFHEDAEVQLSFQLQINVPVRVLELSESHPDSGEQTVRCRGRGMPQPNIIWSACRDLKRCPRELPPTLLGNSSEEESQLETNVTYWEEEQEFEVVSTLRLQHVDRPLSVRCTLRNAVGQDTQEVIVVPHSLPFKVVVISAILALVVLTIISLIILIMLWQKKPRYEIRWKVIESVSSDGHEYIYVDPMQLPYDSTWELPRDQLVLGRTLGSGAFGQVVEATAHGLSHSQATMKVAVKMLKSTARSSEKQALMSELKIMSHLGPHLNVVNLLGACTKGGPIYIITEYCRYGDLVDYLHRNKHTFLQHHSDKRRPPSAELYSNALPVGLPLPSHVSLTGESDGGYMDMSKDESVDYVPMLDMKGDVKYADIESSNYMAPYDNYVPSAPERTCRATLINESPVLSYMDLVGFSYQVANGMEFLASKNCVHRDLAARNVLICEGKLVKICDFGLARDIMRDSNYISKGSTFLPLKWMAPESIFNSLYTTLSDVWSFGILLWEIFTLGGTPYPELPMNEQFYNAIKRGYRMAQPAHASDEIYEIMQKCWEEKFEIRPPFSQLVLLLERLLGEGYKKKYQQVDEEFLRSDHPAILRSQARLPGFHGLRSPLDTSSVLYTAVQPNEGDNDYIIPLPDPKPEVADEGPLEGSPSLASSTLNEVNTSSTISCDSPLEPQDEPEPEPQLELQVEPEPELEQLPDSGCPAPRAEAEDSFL
T30 sequence (Q52WX2 whole entry): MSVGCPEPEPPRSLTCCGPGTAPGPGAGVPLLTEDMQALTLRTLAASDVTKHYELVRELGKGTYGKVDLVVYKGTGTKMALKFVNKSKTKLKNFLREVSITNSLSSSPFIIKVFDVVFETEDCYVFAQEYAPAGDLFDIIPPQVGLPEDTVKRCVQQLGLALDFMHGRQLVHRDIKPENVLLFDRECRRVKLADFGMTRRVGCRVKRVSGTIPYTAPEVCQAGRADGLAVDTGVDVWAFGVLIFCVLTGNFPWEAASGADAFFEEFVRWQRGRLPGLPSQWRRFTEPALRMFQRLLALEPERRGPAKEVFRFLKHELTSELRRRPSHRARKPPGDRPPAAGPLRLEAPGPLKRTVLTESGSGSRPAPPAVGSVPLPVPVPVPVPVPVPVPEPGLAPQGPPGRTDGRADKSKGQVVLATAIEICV
T14 sequence (Q15349 415-672 limits assumed): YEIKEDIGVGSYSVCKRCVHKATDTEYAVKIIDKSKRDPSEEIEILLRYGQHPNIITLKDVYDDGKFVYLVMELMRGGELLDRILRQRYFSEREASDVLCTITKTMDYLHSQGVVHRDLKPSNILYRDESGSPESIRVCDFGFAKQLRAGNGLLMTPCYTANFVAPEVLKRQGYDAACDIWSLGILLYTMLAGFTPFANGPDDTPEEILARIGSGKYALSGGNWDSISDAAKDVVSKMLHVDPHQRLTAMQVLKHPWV
T20 sequence (Q96GD4 whole entry): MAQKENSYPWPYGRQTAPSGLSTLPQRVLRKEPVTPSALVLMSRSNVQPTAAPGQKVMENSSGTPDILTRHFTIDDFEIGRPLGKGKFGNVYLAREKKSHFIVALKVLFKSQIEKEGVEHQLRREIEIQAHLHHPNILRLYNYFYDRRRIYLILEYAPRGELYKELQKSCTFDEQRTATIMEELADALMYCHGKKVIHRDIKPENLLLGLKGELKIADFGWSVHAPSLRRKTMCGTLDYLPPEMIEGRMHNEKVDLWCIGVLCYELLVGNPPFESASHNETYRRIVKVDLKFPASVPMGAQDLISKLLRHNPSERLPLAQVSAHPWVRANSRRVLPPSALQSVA
T7 sequence (Q07912 whole entry): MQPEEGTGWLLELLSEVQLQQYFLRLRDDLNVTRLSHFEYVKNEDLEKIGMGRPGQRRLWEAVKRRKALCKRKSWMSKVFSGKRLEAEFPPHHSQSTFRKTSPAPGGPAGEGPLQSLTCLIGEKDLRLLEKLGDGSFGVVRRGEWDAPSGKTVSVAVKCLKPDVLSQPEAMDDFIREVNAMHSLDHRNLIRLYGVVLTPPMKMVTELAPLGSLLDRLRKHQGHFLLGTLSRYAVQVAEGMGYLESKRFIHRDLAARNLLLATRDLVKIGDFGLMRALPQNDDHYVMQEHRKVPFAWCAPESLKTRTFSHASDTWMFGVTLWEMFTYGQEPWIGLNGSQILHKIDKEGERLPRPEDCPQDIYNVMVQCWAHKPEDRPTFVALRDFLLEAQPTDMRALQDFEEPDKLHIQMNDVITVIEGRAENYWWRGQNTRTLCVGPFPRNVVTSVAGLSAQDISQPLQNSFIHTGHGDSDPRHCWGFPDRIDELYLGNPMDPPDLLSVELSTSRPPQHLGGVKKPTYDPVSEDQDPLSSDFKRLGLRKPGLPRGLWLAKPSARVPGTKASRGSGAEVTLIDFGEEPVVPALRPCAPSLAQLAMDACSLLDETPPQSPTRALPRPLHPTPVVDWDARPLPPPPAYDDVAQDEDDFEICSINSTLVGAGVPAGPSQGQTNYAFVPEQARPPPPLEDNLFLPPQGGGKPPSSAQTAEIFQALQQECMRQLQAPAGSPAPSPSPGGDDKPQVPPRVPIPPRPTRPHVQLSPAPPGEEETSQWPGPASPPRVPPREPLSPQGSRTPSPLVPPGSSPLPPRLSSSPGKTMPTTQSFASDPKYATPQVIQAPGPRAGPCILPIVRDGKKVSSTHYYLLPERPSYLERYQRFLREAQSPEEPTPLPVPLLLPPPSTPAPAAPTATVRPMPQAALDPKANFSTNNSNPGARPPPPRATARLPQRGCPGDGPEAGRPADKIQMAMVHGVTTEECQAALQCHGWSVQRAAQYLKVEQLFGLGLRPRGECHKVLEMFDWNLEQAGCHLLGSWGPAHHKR
T28 sequence (P11802 whole entry): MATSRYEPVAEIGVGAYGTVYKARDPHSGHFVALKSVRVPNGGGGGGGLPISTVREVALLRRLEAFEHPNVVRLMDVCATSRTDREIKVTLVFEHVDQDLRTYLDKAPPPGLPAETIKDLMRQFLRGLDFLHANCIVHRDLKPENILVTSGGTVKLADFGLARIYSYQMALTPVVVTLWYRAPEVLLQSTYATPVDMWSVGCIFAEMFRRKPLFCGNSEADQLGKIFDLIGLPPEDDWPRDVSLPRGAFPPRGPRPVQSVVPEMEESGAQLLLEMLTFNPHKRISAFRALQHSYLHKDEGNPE
T16 sequence (P11802 whole entry): as above
T16 sequence (P24385 whole entry partner): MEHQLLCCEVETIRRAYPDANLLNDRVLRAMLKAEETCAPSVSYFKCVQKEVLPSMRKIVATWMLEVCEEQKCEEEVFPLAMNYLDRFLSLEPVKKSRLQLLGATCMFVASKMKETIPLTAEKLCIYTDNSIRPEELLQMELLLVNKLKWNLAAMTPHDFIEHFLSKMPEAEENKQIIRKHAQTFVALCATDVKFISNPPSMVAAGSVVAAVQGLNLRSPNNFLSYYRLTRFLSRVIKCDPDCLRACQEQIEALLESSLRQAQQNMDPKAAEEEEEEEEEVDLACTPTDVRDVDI
T27 sequence (Q9UK32 73-330 limits assumed): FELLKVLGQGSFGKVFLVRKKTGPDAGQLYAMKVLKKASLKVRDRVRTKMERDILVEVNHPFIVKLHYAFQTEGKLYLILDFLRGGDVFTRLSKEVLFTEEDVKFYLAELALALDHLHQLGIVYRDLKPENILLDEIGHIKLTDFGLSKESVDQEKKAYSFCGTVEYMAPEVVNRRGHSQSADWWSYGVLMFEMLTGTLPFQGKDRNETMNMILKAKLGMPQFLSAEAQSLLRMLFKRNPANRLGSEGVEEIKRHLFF

| Compound | % Ctrl (FLT3) | % Ctrl (PIK3CA(I800L)) | % Ctrl (TNIK) | % Ctrl (VPS34) | % Ctrl (DMPK) | % Ctrl (BRSK1) | % Ctrl (TNK2) | % Ctrl (DYRK2) | % Ctrl (FLT3(R834Q)) | % Ctrl (TESK1) | % Ctrl (MRCKA) | % Ctrl (PRKX) | % Ctrl (KIT(L576P)) | % Ctrl [1] | % Ctrl (NDR1) | % Ctrl (CDK4-cyclinD1) | % Ctrl (PLK2) | % Ctrl (p38-alpha) | % Ctrl (MAP3K4) | % Ctrl (PDGFRB) | also measured |
| --- | --- | --- | --- | --- | --- | --- | --- | --- | --- | --- | --- | --- | --- | --- | --- | --- | --- | --- | --- | --- | --- |
| [2H]C([2H])([2H])N(C(=O)c1ccc(N2CCCN(c3ccnc4sc(C(N)=O)c(N)c34)CC2)cc1)C([2H])([2H])[2H] [15u_D6, 3-amino-4-(4-(4-(bis(methyl-d3)carbamoyl)phenyl)-1,4-diazepan-1-yl)thieno[2,3-b]pyridine-2-carboxamide] | 86 % Ctrl | 74 % Ctrl | 91 % Ctrl | 65 % Ctrl | 97 % Ctrl | 97 % Ctrl | 100 % Ctrl | 97 % Ctrl | 68 % Ctrl | 100 % Ctrl | 100 % Ctrl | 95 % Ctrl | 75 % Ctrl | 89 % Ctrl | 80 % Ctrl | 96 % Ctrl | 86 % Ctrl | 99 % Ctrl | 100 % Ctrl | 93 % Ctrl | % Ctrl (AURKB): 90 % Ctrl; % Ctrl (GCN2(Kin.Dom.2, S808G)): 88 % Ctrl; % Ctrl (PIK3CB): 95 % Ctrl; % Ctrl (SRC): 96 % Ctrl; % Ctrl [2]: 92 % Ctrl; % Ctrl (FLT3-autoinhibited): 77 % Ctrl; % Ctrl (CSF1R-autoinhibited): 83 % Ctrl; % Ctrl [3]: 80 % Ctrl; % Ctrl (CDK4): 71 % Ctrl; % Ctrl (EGFR(G719C)): 100 % Ctrl; % Ctrl (SBK1): 83 % Ctrl; % Ctrl (WNK1): 93 % Ctrl; % Ctrl [4]: 85 % Ctrl; % Ctrl (AURKC): 100 % Ctrl |
| CN(C)C(=O)c1ccc(N2CCCN(c3ccnc4sc(C(N)=O)c(N)c34)CC2)cc1 [15u, 3-amino-4-(4-(4-(dimethylcarbamoyl)phenyl)-1,4-diazepan-1-yl)thieno[2,3-b]pyridine-2-carboxamide] | 94 % Ctrl | 97 % Ctrl | 100 % Ctrl | 85 % Ctrl | 97 % Ctrl | 86 % Ctrl | 100 % Ctrl | 100 % Ctrl | 100 % Ctrl | 83 % Ctrl | 94 % Ctrl | 94 % Ctrl | 96 % Ctrl | 100 % Ctrl | 100 % Ctrl | 94 % Ctrl | 100 % Ctrl | 93 % Ctrl | 90 % Ctrl | 100 % Ctrl | % Ctrl (AURKB): 91 % Ctrl; % Ctrl (GCN2(Kin.Dom.2, S808G)): 73 % Ctrl; % Ctrl (PIK3CB): 100 % Ctrl; % Ctrl (SRC): 100 % Ctrl; % Ctrl [2]: 94 % Ctrl; % Ctrl (FLT3-autoinhibited): 72 % Ctrl; % Ctrl (CSF1R-autoinhibited): 88 % Ctrl; % Ctrl [3]: 78 % Ctrl; % Ctrl (CDK4): 73 % Ctrl; % Ctrl (EGFR(G719C)): 97 % Ctrl; % Ctrl (SBK1): 100 % Ctrl; % Ctrl (WNK1): 100 % Ctrl; % Ctrl [4]: 100 % Ctrl; % Ctrl (AURKC): 100 % Ctrl |
